Results taken from PubChem BioAssay (NCI).
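Dose response: 5 concentrations. Exposure: 48 h. Format: 96-well plates. Endpoint: linear interpolation; highest concentration if not reached. TGI: concentration producing complete growth inhibition.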

Legend:
Test in all cases: inhibition of tumour cell growth, NCI panel, 48 h
786-0 renal = system: 786-0 renal
A549 NSCLC = system: A549 NSCLC
ACHN renal = system: ACHN renal
BT-549 breast = system: BT-549 breast
CCRF-CEM leukemia = system: CCRF-CEM leukemia
COLO 205 colon = system: COLO 205 colon
DU-145 prostate = system: DU-145 prostate
EKVX NSCLC = system: EKVX NSCLC
HCC-2998 colon = system: HCC-2998 colon
HCT-116 colon = system: HCT-116 colon
HCT-15 colon = system: HCT-15 colon
HL-60(TB) leukemia = system: HL-60(TB) leukemia
HOP-62 NSCLC = system: HOP-62 NSCLC
HOP-92 NSCLC = system: HOP-92 NSCLC
HS 578T breast = system: HS 578T breast
HT29 colon = system: HT29 colon
IGROV1 ovarian = system: IGROV1 ovarian
K-562 leukemia = system: K-562 leukemia
KM12 colon = system: KM12 colon
LOX IMVI melanoma = system: LOX IMVI melanoma
M14 melanoma = system: M14 melanoma
MALME-3M melanoma = system: MALME-3M melanoma
MCF7 breast = system: MCF7 breast
MDA-MB-231 breast = system: MDA-MB-231 breast
MDA-MB-435 = system: MDA-MB-435
MDA-N = system: MDA-N
MOLT-4 leukemia = system: MOLT-4 leukemia
NCI-H226 lung = system: NCI-H226 lung
NCI-H23 lung = system: NCI-H23 lung
NCI-H460 lung = system: NCI-H460 lung
NCI-H522 lung = system: NCI-H522 lung
NCI/ADR-RES ovarian = system: NCI/ADR-RES ovarian
OVCAR-3 ovarian = system: OVCAR-3 ovarian
OVCAR-4 ovarian = system: OVCAR-4 ovarian
OVCAR-5 ovarian = system: OVCAR-5 ovarian
OVCAR-8 ovarian = system: OVCAR-8 ovarian
PC-3 prostate = system: PC-3 prostate
RPMI-8226 leukemia = system: RPMI-8226 leukemia
RXF 393 renal = system: RXF 393 renal
SF-268 CNS = system: SF-268 CNS
SF-295 CNS = system: SF-295 CNS
SF-539 CNS = system: SF-539 CNS
SK-MEL-28 melanoma = system: SK-MEL-28 melanoma
SK-MEL-5 melanoma = system: SK-MEL-5 melanoma
SK-OV-3 ovarian = system: SK-OV-3 ovarian
SN12C renal = system: SN12C renal
SNB-19 CNS = system: SNB-19 CNS
SNB-75 CNS = system: SNB-75 CNS
SR leukemia = system: SR leukemia
SW-620 colon = system: SW-620 colon
T-47D breast = system: T-47D breast
TK-10 renal = system: TK-10 renal
U251 CNS = system: U251 CNS
UACC-257 melanoma = system: UACC-257 melanoma
UACC-62 melanoma = system: UACC-62 melanoma
UO-31 renal = system: UO-31 renal
A498 renal = system: A498 renal
CAKI-1 renal = system: CAKI-1 renal
SK-MEL-2 melanoma = system: SK-MEL-2 melanoma

CCOC(=O)OC1C(Br)C2CCC1(C)C2(C)C (centres undefined)
TGI (786-0 renal): 28.8 µM
TGI (A549 NSCLC): 30.1 µM
TGI (ACHN renal): 29.2 µM
TGI (BT-549 breast): 31.3 µM
TGI (CCRF-CEM leukemia): 17.3 µM
TGI (COLO 205 colon): 26.2 µM
TGI (DU-145 prostate): 33 µM
TGI (EKVX NSCLC): 29.4 µM
TGI (HCC-2998 colon): 25.1 µM
TGI (HCT-116 colon): 20.9 µM
TGI (HCT-15 colon): 27.5 µM
TGI (HL-60(TB) leukemia): 20.1 µM
TGI (HOP-62 NSCLC): 31.2 µM
TGI (HOP-92 NSCLC): 27.6 µM
TGI (HS 578T breast): 32.5 µM
TGI (HT29 colon): 18.6 µM
TGI (IGROV1 ovarian): 32.8 µM
TGI (K-562 leukemia): 20.1 µM
TGI (KM12 colon): 28.4 µM
TGI (LOX IMVI melanoma): 18.9 µM
TGI (M14 melanoma): 25.6 µM
TGI (MALME-3M melanoma): 31.3 µM
TGI (MCF7 breast): 31.3 µM
TGI (MDA-MB-231 breast): 24.9 µM
TGI (MDA-MB-435): 23.6 µM
TGI (MDA-N): 28.5 µM
TGI (MOLT-4 leukemia): 16.6 µM
TGI (NCI-H226 lung): 28.1 µM
TGI (NCI-H23 lung): 31.9 µM
TGI (NCI-H460 lung): 16.6 µM
TGI (NCI-H522 lung): 30.2 µM
TGI (NCI/ADR-RES ovarian): 32.7 µM
TGI (OVCAR-3 ovarian): 28.8 µM
TGI (OVCAR-4 ovarian): 25.1 µM
TGI (OVCAR-5 ovarian): 31.7 µM
TGI (OVCAR-8 ovarian): 31.7 µM
TGI (PC-3 prostate): 23.6 µM
TGI (RPMI-8226 leukemia): 20.7 µM
TGI (RXF 393 renal): 25.1 µM
TGI (SF-268 CNS): 29.6 µM
TGI (SF-295 CNS): 29.5 µM
TGI (SF-539 CNS): 28 µM
TGI (SK-MEL-28 melanoma): 29.3 µM
TGI (SK-MEL-5 melanoma): 27.6 µM
TGI (SK-OV-3 ovarian): 29.5 µM
TGI (SN12C renal): 28.1 µM
TGI (SNB-19 CNS): 28.3 µM
TGI (SNB-75 CNS): 24.6 µM
TGI (SR leukemia): 5.83 µM
TGI (SW-620 colon): 30.8 µM
TGI (T-47D breast): 30.3 µM
TGI (TK-10 renal): 27.8 µM
TGI (U251 CNS): 26.6 µM
TGI (UACC-257 melanoma): 29.5 µM
TGI (UACC-62 melanoma): 32.1 µM
TGI (UO-31 renal): 24.6 µM

Cc1ccc(-c2nc(-c3nccc4ccccc34)oc2-c2ccccc2)cc1
TGI (786-0 renal): > 100 µM
TGI (A498 renal): > 100 µM
TGI (A549 NSCLC): > 100 µM
TGI (ACHN renal): > 100 µM
TGI (BT-549 breast): > 100 µM
TGI (CAKI-1 renal): > 100 µM
TGI (CCRF-CEM leukemia): > 100 µM
TGI (COLO 205 colon): > 100 µM
TGI (DU-145 prostate): > 100 µM
TGI (EKVX NSCLC): 64.5 µM
TGI (HCT-116 colon): > 100 µM
TGI (HCT-15 colon): > 100 µM
TGI (HL-60(TB) leukemia): > 100 µM
TGI (HOP-62 NSCLC): > 100 µM
TGI (HOP-92 NSCLC): > 100 µM
TGI (HS 578T breast): > 100 µM
TGI (HT29 colon): > 100 µM
TGI (IGROV1 ovarian): > 100 µM
TGI (K-562 leukemia): > 100 µM
TGI (KM12 colon): > 100 µM
TGI (LOX IMVI melanoma): 48.2 µM
TGI (M14 melanoma): > 100 µM
TGI (MALME-3M melanoma): > 100 µM
TGI (MCF7 breast): > 100 µM
TGI (MDA-MB-231 breast): > 100 µM
TGI (MDA-MB-435): > 100 µM
TGI (MDA-N): > 100 µM
TGI (MOLT-4 leukemia): > 100 µM
TGI (NCI-H226 lung): > 100 µM
TGI (NCI-H23 lung): > 100 µM
TGI (NCI-H460 lung): > 100 µM
TGI (NCI-H522 lung): > 100 µM
TGI (NCI/ADR-RES ovarian): > 100 µM
TGI (OVCAR-3 ovarian): > 100 µM
TGI (OVCAR-4 ovarian): > 100 µM
TGI (OVCAR-5 ovarian): > 100 µM
TGI (OVCAR-8 ovarian): > 100 µM
TGI (PC-3 prostate): > 100 µM
TGI (RPMI-8226 leukemia): > 100 µM
TGI (RXF 393 renal): > 100 µM
TGI (SF-268 CNS): > 100 µM
TGI (SF-295 CNS): > 100 µM
TGI (SF-539 CNS): > 100 µM
TGI (SK-MEL-2 melanoma): > 100 µM
TGI (SK-MEL-28 melanoma): > 100 µM
TGI (SK-MEL-5 melanoma): > 100 µM
TGI (SK-OV-3 ovarian): > 100 µM
TGI (SN12C renal): 62.7 µM
TGI (SNB-19 CNS): > 100 µM
TGI (SNB-75 CNS): 92.7 µM
TGI (SR leukemia): > 100 µM
TGI (SW-620 colon): > 100 µM
TGI (T-47D breast): > 100 µM
TGI (TK-10 renal): > 100 µM
TGI (U251 CNS): > 100 µM
TGI (UACC-257 melanoma): > 100 µM
TGI (UACC-62 melanoma): > 100 µM
TGI (UO-31 renal): > 100 µM
